From patent publication US4259257A, “1-Phenyl-2-amino-1,3-propanediol-N-aryloxyalkyl derivatives” (Egyt Gyogyszervegyeszeti Gyar, priority 1977, dated 1981)
Counter-ions that a name gives are not always drawn. Like-named read-outs stand apart in the source and are kept apart here.

Key:
in vivo = details: rat, iv, read-out: LD50-value (acute intravenous toxicity)
Procedure: The acute intravenous toxicity was determined on rats of both sexes, using five animals for each doses. The relative anti-anginose activity was calculated on the basis of the following equation: [formula]

N. ischiadicus of rats = experiment: Local anaesthetic activity by the method of Truant and d'Amato; format: in vivo; details: for Local anaesthetic activity EC50: N. ischiadicus of rats, motor-paralysis; for Local anaesthetic activity, relative efficiency: related to Lidocaine (1.0)
Procedure: The local anaesthetic activity was tested by the method of Truant and d'Amato (Truant, A. P. and Wiedling, S., Acta Chirurg. Scand. 116, 351/1958) on the N. ischiadicus of rats. The number of the animals showing the signs of characteristic motor-paralysis was recorded. As a control compound Lidocaine was used. This test can be carried out with water-soluble substances only.

[1] = tested on: coronary insufficiency induced with glanduitrine in male rats (CFY strain); experiment: Anti-anginose activity by the method of Nieschulz, coronary insufficiency induced with glanduitrine; format: in vivo; details: for Relative efficiency (relative anti-anginose activity): inhibition caused by Prenilamine=1; for Anti-anginose effect (inhibition %): rats, test dose 10.0 mg./kg. (compound 1), 2.0 mg./kg. (2, 3, Prenilamine), 4.0 mg./kg. (5, Lidocaine)
Procedure: Anti-anginose activity of the compounds according to the invention was tested on male rats from the CFY strain by the method of Nieschulz (Nieschulz, E. et al., Arzneimittelforschung, 5, 680/1955/). The rats weighed about 180 to 220 g. each and were narcotized prior to treatment. Electrocardiograms were registered by means of a NEK-2 ECG-instrument using a standard II output. The coronary insufficiency was induced with a 4 IE/kg. i.v. dose of glanduitrine. Prenilamine was used as a reference compound.
The acute intravenous toxicity was determined on rats of both sexes, using five animals for each doses. The relative anti-anginose activity was calculated on the basis of the following equation: [formula] Test results are shown in Table 3 below (inhibition caused by Prenilamine=1).

isolated rat ileums = experiment: Smooth muscle relaxing activity by the method of Brock et al. on isolated rat ileums; details: for Smooth muscle relaxant activity EC50: isolated rat ileums; for Smooth muscle relaxant activity, relative efficiency: related to Papaverine (1.0)
From the text: For the determination of smooth muscle relaxing activity the method of Brock et al. (Brock, N, et al., Arch. Exper. Pathol. u. Pharmacol., 215, 492/1952/) was used on isolated rat ileums. Papaverine was used as reference compound. In Table 4 below the EC50 -values and the relative efficiencies calculated on the basis of the following equation are also listed: [formula]

[2] = Acute oral toxicity on mice (CFLP strain), 96 h observation; details: mouse, in vivo
Procedure: Toxicity (per os) has been determined on mice (CFLP strain) of both sexes weighing about 20 to 25 g. each, 10 mice were used for each doses and the time of observation was 96 hours.

In the case of `CC(COc1ccccc1)N[C@@H](CO)[C@@H](O)c1ccccc1` (relative stereo) [Compound 2, Threo + allothreo-1-phenyl-2-phenoxy-isopropylamino-1,3-propanediol fumarate], the LD50 (in vivo) is reported as 11 mg/kg, the “Local anaesthetic activity EC50” value (N. ischiadicus of rats) is reported as 0.12 mg/L and the “Local anaesthetic activity, relative efficiency” value (N. ischiadicus of rats) is reported as 1.58. For the same compound, the “Relative efficiency (relative anti-anginose activity)” value [1] was 1.3, the “Anti-anginose effect (inhibition %)” value [1] was 56% and the “Smooth muscle relaxant activity EC50” value (isolated rat ileums) was 17.57 mg/L. For the same compound, the “Smooth muscle relaxant activity, relative efficiency” value (isolated rat ileums) was 0.50 and the LD50 at 96 h [2] was 200 mg/kg.

In the case of `CC(COc1ccccc1)N[C@@H](CO)[C@@H](O)c1ccccc1` (single isomer, unassigned; (+)) [Compound 3, (+) (Threo + allothreo)-1-phenyl-2-phenoxy-isopropylamino-1,3-propanediol fumarate], the LD50 (in vivo) is reported as 21.5 mg/kg, the “Local anaesthetic activity EC50” value (N. ischiadicus of rats) is reported as 0.20 mg/L and the “Local anaesthetic activity, relative efficiency” value (N. ischiadicus of rats) is reported as 0.95. The “Relative efficiency (relative anti-anginose activity)” value [1] was 3.0, the “Anti-anginose effect (inhibition %)” value [1] was 67% and the “Smooth muscle relaxant activity EC50” value (isolated rat ileums) was 8.50 mg/L. For the same compound, the “Smooth muscle relaxant activity, relative efficiency” value (isolated rat ileums) was 1.03 and the LD50 at 96 h [2] was 350 mg/kg.

For `CC(COc1ccccc1)N[C@H](CO)[C@H](O)c1ccccc1` (single isomer, unassigned; (-)) [Compound 4, (-) (Threo + allothreo)-1-phenyl-2-phenoxy-isopropylamino-1,3-propanediol fumarate], the “Local anaesthetic activity EC50” value (N. ischiadicus of rats) was 0.28 mg/L, the “Local anaesthetic activity, relative efficiency” value (N. ischiadicus of rats) was 0.68 and the “Smooth muscle relaxant activity EC50” value (isolated rat ileums) was 10.78 mg/L. The “Smooth muscle relaxant activity, relative efficiency” value (isolated rat ileums) was 0.80 and the LD50 at 96 h [2] was 275 mg/kg.

For `CC(C)N[C@@H](CO)[C@@H](O)c1ccccc1` [Compound 1, L (+) threo-1-phenyl-2-isopropylamino-1,3-propanediol], the LD50 (in vivo) was 140 mg/kg, the “Relative efficiency (relative anti-anginose activity)” value [1] was 3.0 and the “Anti-anginose effect (inhibition %)” value [1] was 50%. It also gave an LD50 at 96 h [2] of 710 mg/kg.

For `CC(COc1ccccc1)N[C@@H](CO)[C@H](O)c1ccccc1` (stereo partly drawn) [Compound 5, Erythro+alloerythro-1-phenyl-2-phenoxyisopropylamino-1,3-propanediol fumarate], the LD50 (in vivo) was 45 mg/kg, the “Relative efficiency (relative anti-anginose activity)” value [1] was 3.0 and the “Anti-anginose effect (inhibition %)” value [1] was 64%. For the same compound, the LD50 at 96 h [2] was 2000 mg/kg.

With `CCN(CC)CC(=O)Nc1c(C)cccc1C` [Lidocaine, reference compound] the “Local anaesthetic activity EC50” value (N. ischiadicus of rats) was 0.19 mg/L and the “Anti-anginose effect (inhibition %)” value [1] was 39%.

For `COc1ccc(Cc2nccc3cc(OC)c(OC)cc23)cc1OC` [Papaverine, reference compound], the “Smooth muscle relaxant activity EC50” value (isolated rat ileums) was 8.78 mg/L and the “Smooth muscle relaxant activity, relative efficiency” value (isolated rat ileums) was 1.0.

With `CC(Cc1ccccc1)NCCC(c1ccccc1)c1ccccc1` (stereo not drawn) [Prenilamine, 3,3-diphenylpropyl-1-methylphenethylamine, reference compound] the LD50 (in vivo; rats, i.v.) was 11.5 mg/kg, the “Relative efficiency (relative anti-anginose activity)” value [1] was 1.0 and the “Anti-anginose effect (inhibition %)” value [1] was 41%.
